pIC50: −log10 of the molar value. Like-named read-outs stand apart in the source and are kept apart here. Square brackets hold non-standard residues; d marks the D form. Peptide text beside a SMILES is read from it. * marks the point of attachment. X1 = CC(=O)N[C@@H]1[C@@H](O[C@@H]2O[C@H](CO)[C@H](O)[C@H](O)[C@H]2O)[C@@H](O)[C@@H](CO[C@@H]2O[C@H](CO)[C@@H](O[C@@H]3O[C@H](CO)[C@H](O)[C@H](O[C@]4(C(=O)O)C[C@H](O)[C@@H](NC(C)=O)[C@H]([C@H](O)[C@H](O)CO)O4)[C@H]3O)[C@H](O[C@@H]3O[C@@H](C)[C@@H](O)[C@@H](O)[C@@H]3O)[C@H]2NC(C)=O)O[C@@H]1*; Phe(4-CH2SO3H) = N[C@@H](Cc1ccc(CS(=O)(=O)O)cc1)C(=O)O; Mca = COc1ccc2c(CC(=O)*)cc(=O)oc2c1
Key:
[1] = test system: P-selectin (recombinant Ig chimera); assay: Microarray binding screen of glycopeptide mimics, P-selectin; parameters: species or system human and mouse; settings: selectin Ig chimeras 5-20 μg/mL, Alexa-488 anti-human IgG
Experimental: Bound peptides were detected using Alexa-488 labeled anti-human IgG antibody (5 μg/mL). Three lectins RCA-1, AAL, and PNA were used to confirm the sequence of enzymatic steps. Monoclonal antibodies CHO131, PSG2 antibody and PL-1 were used to confirm the presence of SLex, tyrosine sulfates, and the peptide sequence, respectively. Biacore binding analysis to human P-selectin with observed rate constants for (D) GSnP-6, kon 3.1×10^5 M^−1s^−1, koff 6.9×10^3 M^−1s^−; GSn2P-6, kon6.4×10^5 M^−1s^−1, koff 6.8×10^3 M^−1s. Biacore binding analysis to mouse P-selectin with observed rate constants for (E) GsnP-6, kon 4.9×10^4 M^−1s^−1, koff 8.0×10^3 M^−1s^−; GSn2P-6 kon 5.3×10^4 M^−1s^−1, koff 9.0×10^3 M^−1s. (F) Temperature- and pH-dependent stability studies of GSnP-6.
Binding affinities of PSGL-1 mimics towards selectins was initially screened using a microarray in which glycosulfopeptides and glycan standards (Sialyl Le^x, NA2, NA2,3, NA2,6 and LNnT) were printed on a NHS-activated glass slide. The slide was then incubated with recombinant Ig chimeras of P-, L-, or E-selectin (5-20 μg/mL) followed by Alexa-488 labeled anti-human IgG antibody (5 μg/mL). […] Binding of glycopeptides mimics to selectins was […] dependent and inhibited by EDTA.

[2] = target: T1, recombinant human P-selectin Fc chimera (Homo sapiens, UniProt P16109); assay: Flow cytometry, inhibition of human P-selectin Fc chimera binding to human leukocytes; format: cell-based
T1 sequence (P16109 42-830): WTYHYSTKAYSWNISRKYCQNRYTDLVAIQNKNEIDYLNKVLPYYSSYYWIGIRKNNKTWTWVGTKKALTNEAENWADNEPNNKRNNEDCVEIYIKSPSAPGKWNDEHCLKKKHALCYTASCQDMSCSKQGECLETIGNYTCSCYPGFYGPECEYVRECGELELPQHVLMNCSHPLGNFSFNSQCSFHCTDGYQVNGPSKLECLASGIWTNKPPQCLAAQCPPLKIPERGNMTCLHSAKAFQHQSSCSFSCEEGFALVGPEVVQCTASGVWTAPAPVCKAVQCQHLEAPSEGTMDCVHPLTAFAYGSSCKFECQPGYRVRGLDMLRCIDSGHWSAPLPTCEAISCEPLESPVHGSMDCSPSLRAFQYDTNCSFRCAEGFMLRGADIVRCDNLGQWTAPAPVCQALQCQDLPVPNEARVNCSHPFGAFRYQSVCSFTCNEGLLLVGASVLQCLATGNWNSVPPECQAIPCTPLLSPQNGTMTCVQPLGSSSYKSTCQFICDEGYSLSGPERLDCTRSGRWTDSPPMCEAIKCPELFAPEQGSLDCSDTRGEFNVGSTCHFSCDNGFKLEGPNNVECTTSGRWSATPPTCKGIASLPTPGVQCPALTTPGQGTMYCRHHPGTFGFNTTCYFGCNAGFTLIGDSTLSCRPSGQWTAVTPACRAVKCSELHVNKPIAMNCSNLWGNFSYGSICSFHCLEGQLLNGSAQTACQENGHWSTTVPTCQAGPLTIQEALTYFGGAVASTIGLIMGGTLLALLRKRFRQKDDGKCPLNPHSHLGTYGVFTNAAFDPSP
Experimental: Flow cytometry was used to characterize the ability of GSnP-6 to block binding of selectin-IgG chimeras to murine and human leukocytes. Recombinant mouse P- or L-selectin Fc chimera (2 μg/mL) was incubated with murine neutrophils and GSnP-6 (0-30 μM). Likewise, recombinant human P-selectin or L-selectin Fc chimera were incubated with human peripheral blood neutrophils and monocytes, as well as the human U937 cell line in the presence of GSnP-6 (0-30 μM). Binding of selectin-IgG chimeras was detected with PE-conjugated anti-IgG antibody, quantified as mean fluorescent intensity, and plotted as percent inhibition. Specificity was confirmed with selectin-specific blocking antibodies.

`COc1ccc2c(CC(=O)NCCCC[C@H](N)C(=O)N[C@@H](CCC(=O)O)C(=O)N[C@@H](Cc3ccc(CS(=O)(=O)O)cc3)C(=O)N[C@@H](CCC(=O)O)C(=O)N[C@@H](Cc3ccc(CS(=O)(=O)O)cc3)C(=O)N[C@@H](CC(C)C)C(=O)N[C@@H](CC(=O)O)C(=O)N[C@@H](Cc3ccc(CS(=O)(=O)O)cc3)C(=O)N[C@@H](CC(=O)O)C(=O)N[C@@H](Cc3ccccc3)C(=O)N[C@@H](CC(C)C)C(=O)N3CCC[C@H]3C(=O)N[C@@H](CCC(=O)O)C(=O)N[C@H](C(=O)N[C@@H](CCC(=O)O)C(=O)N3CCC[C@H]3C(=O)N[C@@H](CC(C)C)C(=O)O)[C@@H](C)O[C@H]3O[C@H](CO[C@@H]4O[C@H](CO)[C@@H](O[C@@H]5O[C@H](CO)[C@H](O)[C@H](O[C@]6(C(=O)O)C[C@H](O)[C@@H](NC(C)=O)[C@H]([C@H](O)[C@H](O)CO)O6)[C@H]5O)[C@H](O[C@@H]5O[C@@H](C)[C@@H](O)[C@@H](O)[C@@H]5O)[C@H]4NC(C)=O)[C@H](O)[C@H](O[C@@H]4O[C@H](CO)[C@H](O)[C@H](O)[C@H]4O)[C@H]3NC(C)=O)cc(=O)oc2c1` [GSnP-6] (H-K(Mca)E[Phe(4-CH2SO3H)]E[Phe(4-CH2SO3H)]LD[Phe(4-CH2SO3H)]DFLPET(X1)EPL-OH) was tested, and the “binding to P-selectin compared with E- or L-selectin” value [1] was “bound to P-selectin more strongly than to E- or L-selectin”, the pIC50 ([2]; human U-937 cells, GSnP-6 0-30 μM, read-out: IC50, P-selectin dependent interactions, human U-937 cells) was ~5.10 and the pIC50 ([2]; human peripheral blood monocytes, read-out: IC50, P-selectin dependent interactions, human monocytes) was ~4.52. The pIC50 ([2]; human peripheral blood neutrophils (PMN), read-out: IC50, P-selectin dependent interactions, human PMN) was ~4.52.

From patent US10253071B2, “Selectin inhibitors, composition, and uses related thereto” (Beth Israel Deaconess Medical Center, Inc., priority 2014, dated 2019)
